Assay [1] deals with Plasmodium falciparum. In words: microbe, parasite or virus in culture. The class given is functional, organism-based. As to conditions: Dd2, 72 h.
Description: Antimalarial activity against chloroquine resistant Plasmodium falciparum Dd2 after 72 hrs by SYBP Green I dye staining
Assay [2] concerns Plasmodium falciparum. In words: microbe, parasite or virus in culture. Format: functional, organism-based. As to conditions: HB3, 72 h.
Description: Antimalarial activity against chloroquine sensitive Plasmodium falciparum HB3 after 72 hrs by SYBP Green I dye staining
Assay [3] is described as follows: Inhibition of beta-hematin formation after 16 hrs at pH 5.6 by microplate reader. Format: functional.
The nature of assay [4]: Inhibition of beta-hematin formation after 16 hrs at pH 5.2 by microplate reader. Format: functional.
Assay [5] deals with Plasmodium falciparum. Nature of the assay: Ratio of compound IC50 to cinchonine IC50 for chloroquine sensitive Plasmodium falciparum HB3. Format: functional.
The test system of assay [6] is Plasmodium falciparum. In words: Ratio of compound IC50 to quinidine IC50 for chloroquine sensitive Plasmodium falciparum HB3. The class given is functional.
The test system of assay [7] is Plasmodium falciparum. In words: Ratio of compound IC50 to quinidine IC50 for […] Plasmodium falciparum Dd2. Format: functional.

With `COc1ccc2nccc([C@@H](O)[C@H]3C[C@H]4CCN3C[C@@H]4/C=C/c3ccc(F)cc3)c2c1`, the IC50 – broadly, the concentration that inhibits the measured activity by half – was more than 500 nM in the assay with Plasmodium falciparum [1], more than 500 nM with Plasmodium falciparum [2], 23000 nM in assay [3] and 44000 nM in assay [4].

With `O[C@@H](c1ccnc2ccccc12)[C@H]1C[C@@H]2CCN1C[C@@H]2/C=C/c1ccc(-c2ccccc2)cc1`, the IC50 was determined as 243 nM in the assay with Plasmodium falciparum [1] and 90 nM with Plasmodium falciparum [2]. Besides, the “Ratio IC50” value with Plasmodium falciparum [5] stood at 6.

For `COc1cccc(/C=C/[C@H]2CN3CC[C@@H]2C[C@@H]3[C@H](O)c2ccnc3ccc(OC)cc23)c1`, the IC50 with Plasmodium falciparum [1] and in the assay on Plasmodium falciparum [2] was more than 500 nM throughout.

Consider `COc1ccc2nccc([C@@H](O)[C@H]3C[C@H]4CCN3C[C@@H]4/C=C/c3cccc4ccccc34)c2c1`, for which the IC50 with Plasmodium falciparum [1] and with Plasmodium falciparum [2] was more than 500 nM each time.

Turning to `O[C@H](c1ccnc2ccccc12)[C@@H]1C[C@@H]2CCN1C[C@@H]2/C=C/c1cccc(C(F)(F)F)c1`, the IC50 in the assay with Plasmodium falciparum [1] was determined as 928 nM; in the assay with Plasmodium falciparum [2], 394 nM; in assay [3], 70000 nM; in assay [4] it was 75000 nM.

Regarding `C=C[C@H]1CN2CC[C@H]1C[C@@H]2[C@@H](O)c1ccnc2ccccc12` [CINCHONINE], the IC50 in the assay on Plasmodium falciparum [1] was found to be 82 nM; in the assay on Plasmodium falciparum [2] it was 22 nM; in assay [3], 170000 nM; in assay [4] it was 370000 nM.

`COc1ccc2nccc([C@@H](O)[C@H]3C[C@H]4CCN3C[C@@H]4/C=C/c3ccc(C)cc3)c2c1`: the IC50 with Plasmodium falciparum [1] and in the assay with Plasmodium falciparum [2] was more than 500 nM each time.

Consider `O[C@@H](c1ccnc2ccccc12)[C@H]1C[C@@H]2CCN1C[C@@H]2/C=C/c1ccc(C(F)(F)F)cc1`, for which the IC50 was determined as 983 nM in the assay with Plasmodium falciparum [1] and 66 nM with Plasmodium falciparum [2]. Besides, the “Ratio IC50” value in the assay on Plasmodium falciparum [5] stood at 6.

Take `COc1ccc2nccc([C@@H](O)[C@H]3C[C@H]4CCN3C[C@@H]4/C=C/c3ccccc3C)c2c1`: the 50% inhibitory concentration (IC50) in the assay with Plasmodium falciparum [1] and in the assay on Plasmodium falciparum [2] was more than 500 nM each time.

Take `COc1ccc2nccc([C@@H](O)[C@H]3C[C@H]4CCN3C[C@@H]4/C=C/c3cccc(C(F)(F)F)c3)c2c1`: the results for the IC50 (with Plasmodium falciparum [1]; in the assay on Plasmodium falciparum [2]; in assay [4]) were more than 500 nM, more than 500 nM and 52000 nM, respectively.

Take `COc1ccc2nccc([C@H](O)[C@H]3C[C@@H]4CCN3C[C@@H]4/C=C/c3ccc(-c4ccccc4)cc3)c2c1`: the IC50 with Plasmodium falciparum [1] came out at 202 nM; in the assay on Plasmodium falciparum [2], 123 nM. In addition, the “Ratio IC50” value in the assay with Plasmodium falciparum [6] is on record as 6; with Plasmodium falciparum [7], 2.

As to `C=C[C@H]1CN2CC[C@H]1C[C@H]2[C@H](O)c1ccnc2ccc(OC)cc12` [QUININE], the IC50 was found to be 320 nM in the assay with Plasmodium falciparum [1], 81 nM in the assay with Plasmodium falciparum [2], 34000 nM in assay [3] and 291000 nM in assay [4].

As for `COc1ccc2nccc([C@H](O)[C@H]3C[C@@H]4CCN3C[C@@H]4/C=C/c3ccc(C(F)(F)F)cc3)c2c1`, the IC50 amounted to 2350 nM in the assay with Plasmodium falciparum [1] and 165 nM in the assay with Plasmodium falciparum [2].

For the molecule `C=C[C@H]1CN2CC[C@H]1C[C@H]2[C@H](O)c1ccnc2ccccc12` [CINCHONIDINE], the IC50 was 207 nM in the assay on Plasmodium falciparum [1], 70 nM in the assay on Plasmodium falciparum [2], 142000 nM in assay [3] and 321000 nM in assay [4].

As for `O[C@H](c1ccnc2ccccc12)[C@@H]1C[C@@H]2CCN1C[C@@H]2/C=C/c1ccc(-c2ccccc2)cc1`, the IC50 with Plasmodium falciparum [1] was determined as 176 nM; with Plasmodium falciparum [2], 127 nM; in assay [3] it was 116000 nM.

As to `COc1ccc2nccc([C@H](O)[C@H]3C[C@@H]4CCN3C[C@@H]4/C=C/c3cccc(C(F)(F)F)c3)c2c1`, the figures for the IC50 with Plasmodium falciparum [1] and in the assay with Plasmodium falciparum [2] were 182 nM and 98 nM, respectively. In addition, the results for the “Ratio IC50” value in the assay on Plasmodium falciparum [6] and in the assay on Plasmodium falciparum [7] were 6 and 2, respectively.

As to `COc1ccc2nccc([C@@H](O)[C@H]3C[C@H]4CCN3C[C@@H]4/C=C/c3ccccc3)c2c1`, the IC50 in the assay with Plasmodium falciparum [1] and with Plasmodium falciparum [2] was more than 500 nM each time.

In the case of `COc1ccc2nccc([C@@H](O)[C@H]3C[C@H]4CCN3C[C@@H]4/C=C/c3ccc(C(F)(F)F)cc3)c2c1`, the IC50 is 485 nM in the assay with Plasmodium falciparum [1], 427 nM in the assay with Plasmodium falciparum [2], 46000 nM in assay [3] and 100000 nM in assay [4].

Regarding `CCOC(=O)c1ccc(/C=C/[C@H]2CN3CC[C@@H]2C[C@@H]3[C@H](O)c2ccnc3ccc(OC)cc23)cc1`, the IC50 in the assay with Plasmodium falciparum [1] worked out at 318 nM; in the assay on Plasmodium falciparum [2], 428 nM; in assay [3], 40000 nM; in assay [4], 54000 nM.

Take `O[C@H](c1ccnc2ccccc12)[C@@H]1C[C@@H]2CCN1C[C@@H]2/C=C/c1ccc(C(F)(F)F)cc1`: the IC50 in the assay with Plasmodium falciparum [1] was determined as 223 nM; in the assay on Plasmodium falciparum [2] it was 297 nM.

Take `CCOC(=O)c1ccc(/C=C/[C@H]2CN3CC[C@H]2C[C@@H]3[C@@H](O)c2ccnc3ccccc23)cc1`: the IC50 came out at 263 nM with Plasmodium falciparum [1], 144 nM in the assay with Plasmodium falciparum [2], 50000 nM in assay [3] and 66000 nM in assay [4]. Also, the “Ratio IC50” value with Plasmodium falciparum [5] is reported as 6.

On to `COc1ccc2nccc([C@@H](O)[C@H]3C[C@H]4CCN3C[C@@H]4/C=C/c3cccc(F)c3)c2c1`, for which the values for the IC50 in the assay on Plasmodium falciparum [1] and in the assay on Plasmodium falciparum [2] were 733 nM and 145 nM, respectively.

In the case of `C=C[C@H]1CN2CC[C@H]1C[C@@H]2[C@@H](O)c1ccnc2ccc(OC)cc12` [QUINIDINE], the half-maximal inhibitory concentration (IC50) was 90 nM with Plasmodium falciparum [1], 18 nM in the assay on Plasmodium falciparum [2], 23000 nM in assay [3] and 130000 nM in assay [4].

For the molecule `COc1ccc(/C=C/[C@H]2CN3CC[C@@H]2C[C@@H]3[C@H](O)c2ccnc3ccc(OC)cc23)cc1`, the IC50 with Plasmodium falciparum [1] and in the assay on Plasmodium falciparum [2] was more than 500 nM each time.

In the case of `COc1ccc2nccc([C@@H](O)[C@H]3C[C@H]4CCN3C[C@@H]4/C=C/c3ccc(Cl)cc3)c2c1`, the IC50 in the assay with Plasmodium falciparum [1] and with Plasmodium falciparum [2] was more than 500 nM each time.

For `CCOC(=O)c1ccc(/C=C/[C@H]2CN3CC[C@H]2C[C@H]3[C@H](O)c2ccnc3ccccc23)cc1`, the IC50 is 198 nM with Plasmodium falciparum [1] and 590 nM in the assay on Plasmodium falciparum [2].

As for `COc1ccc2nccc([C@@H](O)[C@H]3C[C@H]4CCN3C[C@@H]4/C=C/c3ccc4c(c3)OCO4)c2c1`, the IC50 in the assay with Plasmodium falciparum [1] and with Plasmodium falciparum [2] was more than 500 nM throughout.

Take `CCOC(=O)c1ccc(/C=C/[C@H]2CN3CC[C@H]2C[C@@H]3[C@@H](O)c2ccnc3ccc(OC)cc23)cc1`: the IC50 was 203 nM in the assay on Plasmodium falciparum [1], 120 nM with Plasmodium falciparum [2], 40000 nM in assay [3] and 88000 nM in assay [4]. The results for the “Ratio IC50” value with Plasmodium falciparum [6] and in the assay on Plasmodium falciparum [7] were 6 and 2, respectively.

In the case of `COc1ccc2nccc([C@@H](O)[C@H]3C[C@H]4CCN3C[C@@H]4/C=C/c3ccc(-c4ccccc4)cc3)c2c1`, the IC50 in the assay with Plasmodium falciparum [1] was 184 nM; in the assay on Plasmodium falciparum [2] it was 128 nM.

Consider `CCN(CC)CCCC(C)Nc1ccnc2cc(Cl)ccc12` (stereo not drawn) [CHLOROQUINE], for which the IC50 came out at 33000 nM in assay [3] and 49000 nM in assay [4].

In the case of `COc1ccc2nccc([C@@H](O)[C@H]3C[C@H]4CCN3C[C@@H]4/C=C/c3ccc4ccccc4c3)c2c1`, the figures for the IC50 in the assay on Plasmodium falciparum [1] and in the assay on Plasmodium falciparum [2] were more than 1500 nM and more than 500 nM, respectively.

As to `O[C@@H](c1ccnc2ccccc12)[C@H]1C[C@@H]2CCN1C[C@@H]2/C=C/c1cccc(C(F)(F)F)c1`, the half-inhibitory concentration (IC50) came to 146 nM in the assay on Plasmodium falciparum [1], 154 nM with Plasmodium falciparum [2], 39000 nM in assay [3] and 63000 nM in assay [4]. For the same molecule, the “Ratio IC50” value in the assay on Plasmodium falciparum [5] came to 6.

The values are drawn from ChEMBL document CHEMBL2021864, “Investigating the activity of quinine analogues versus chloroquine resistant Plasmodium falciparum” (Bioorg Med Chem, 2012).
